Test system: non-canonical WNT signaling in monocytes/macrophages
Assay: PBMC-derived macrophages stimulated with supernatant of hypoxic AdWIF1-transfected cardiomyocytes
Format: cell-based, rat
Method: Neonatal rat ventricular cardiomyocytes (NRVCMs) were isolated as previously described (Hagenmueller et al. 2010). After plating, NRVCMs were allowed to adhere overnight. Cardiomyocytes were cultured under hypoxic conditions (1.5% O2) for either four or 24 hours. Supernatant, RNA and proteins were harvested.
Premade WIF1 and control adenovirus was purchased from Applied Biological Materials Inc. (Richmond, Canada). Adenovirus was amplified according to the manufacturer's instructions. Cardiomyocytes were transfected according to manufacturer's instructions. WIF1 overexpression was allowed to establish for 48 hours. Transfected cardiomyocytes were than cultured under hypoxic conditions as described above (see 1.9).
Adult rats were euthanized using a high dose of pentobarbital. Blood was collected by cardiac puncture into EDTA-coated sample tubes. Mononuclear cells were separated using Histopaque 1083 (Sigma-Aldrich Chemie GmbH, Taufkirchen, Germany) according to manufacturer's instructions. Monocytes/macrophages were allowed to adhere to the cell culture dish for two hours. Non-adherent mononuclear cells were discarded. Macrophages were stimulated with supernatant of hypoxic cardiomyocytes for four hours.
Protein lysates of primary cells and heart tissue were prepared using RIPA buffer supplemented with phosphatase/proteinase inhibitors (Cell Signaling Technology, Danvers, USA). Protein concentrations were measured using BCA assay (ThermoFisher Scientific, Waltham, USA). Equal amounts of protein were separated onto four 15% SDS-PAGE gradient gels (Bio-Rad Laboratories GmbH, München, Germany) and transferred to PVDF membranes (Merck Chemicals GmbH, Darmstadt, Germany). The following primary and HPR-conjugated secondary antibodies were used: monoclonal mouse anti-Active-β-Catenin (anti ABC), clone 8E7 (Merck Millipore, Darmstadt, Germany); monoclonal rabbit anti-JNK1+JNK2+JNK3 [EP1597Y] […] Protein expression was analyzed using ImageJ. Protein bands were normalized to GAPDH (respectively actin) loading control for quantification. […]

[1] = supernatant of WIF1-overexpressing cardiomyocytes vs control cells, FIG. 6B

Substance: WIF1: cardiomyocyte-derived WIF1 in supernatant of hypoxic cardiomyocytes transfected with WIF1 adenovirus (AdWIF1)
- transcription level of pro-inflammatory cytokine IL1β [1]: reduced
- transcription level of pro-inflammatory cytokine IL6 [1]: reduced
- JNK phosphorylation in isolated monocytes/macrophages (supernatant of hypoxic WIF1-overexpressing cardiomyocytes vs control supernatant, FIG. 6A): significantly reduced
